Measured values from PubChem BioAssay (NCI).
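Compound exposure: 48 hours, 5 concentrations, 96-well plates. At the GI50, growth is halved. TGI is the concentration that stops growth completely.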

Columns and labels:
Experiment in all cases: NCI anticancer screen, dose series, 48 h
HT29 colon = test system: HT29 colon
RPMI-8226 leukemia = test system: RPMI-8226 leukemia
NCI-H522 lung = test system: NCI-H522 lung
RXF 393 renal = test system: RXF 393 renal
SR leukemia = test system: SR leukemia
HCC-2998 colon = test system: HCC-2998 colon
UACC-257 melanoma = test system: UACC-257 melanoma
SK-MEL-5 melanoma = test system: SK-MEL-5 melanoma
HCT-116 colon = test system: HCT-116 colon
NCI/ADR-RES ovarian = test system: NCI/ADR-RES ovarian

Q: What does the source list for `CO[C@@H]1C=C[C@@]23c4cc5c(cc4CN(C[C@@H]2O)[C@H]3C1)OCO5`?
A: TGI (HT29 colon): > 100 µM; TGI (RPMI-8226 leukemia): > 100 µM; TGI (NCI-H522 lung): 50.7 µM; TGI (RXF 393 renal): > 100 µM; TGI (SR leukemia): 77.6 µM; TGI (HCC-2998 colon): 56.6 µM; TGI (UACC-257 melanoma): > 100 µM

Q: Which results are given for `Cc1cccc(-n2c(N)c(-c3nc4ccccc4[nH]3)sc2=S)c1`?
A: TGI (HT29 colon): 56.6 µM; TGI (RPMI-8226 leukemia): 57.4 µM; TGI (NCI-H522 lung): 75.7 µM; TGI (RXF 393 renal): 72.9 µM; TGI (SK-MEL-5 melanoma): 46.7 µM; TGI (UACC-257 melanoma): 67.1 µM

Q: Which results are given for `N/N=C1\C(=O)N(Cc2ccccc2)C(=O)C1C(=O)NCc1ccccc1` (stereo not drawn)?
A: TGI (HT29 colon): > 100 µM; TGI (RPMI-8226 leukemia): > 100 µM; TGI (NCI-H522 lung): > 100 µM; TGI (RXF 393 renal): > 100 µM; TGI (SK-MEL-5 melanoma): > 100 µM; TGI (SR leukemia): > 100 µM; TGI (HCT-116 colon): > 100 µM; TGI (HCC-2998 colon): > 100 µM; TGI (UACC-257 melanoma): > 100 µM

Q: `COC(=O)c1ccccc1N(C(=O)c1ccccc1)c1ccccc1C` was tested. Which TGI (HT29 colon) did it give?
A: > 100 µM

Q: And the TGI (NCI-H522 lung)?
A: 86.1 µM

Q: And the TGI (RXF 393 renal)?
A: 92.1 µM

Q: And the TGI (SK-MEL-5 melanoma)?
A: > 100 µM

Q: And the TGI (SR leukemia)?
A: 99.4 µM

Q: And the TGI (HCT-116 colon)?
A: > 100 µM

Q: And the TGI (HCC-2998 colon)?
A: > 100 µM

Q: What about the TGI (UACC-257 melanoma) of the same molecule?
A: > 100 µM

Q: For `CC1=CC(C)=NN=C(N)N1S(=O)(=O)c1cc(C)c(Cl)cc1SCc1ccccc1`, which GI50 (HT29 colon) is on record?
A: 24.5 µM

Q: And the TGI (HT29 colon)?
A: > 100 µM

Q: What about the GI50 (RPMI-8226 leukemia) of the same molecule?
A: 5.93 µM

Q: What about the TGI (RPMI-8226 leukemia) of the same molecule?
A: > 100 µM

Q: What about the GI50 (NCI-H522 lung) of the same molecule?
A: 7.78 µM

Q: And the TGI (NCI-H522 lung)?
A: > 100 µM

Q: And the GI50 (SK-MEL-5 melanoma)?
A: 40.7 µM

Q: And the TGI (SK-MEL-5 melanoma)?
A: > 100 µM

Q: What about the GI50 (NCI/ADR-RES ovarian) of the same molecule?
A: 8.71 µM

Q: And the TGI (NCI/ADR-RES ovarian)?
A: > 100 µM

Q: And the GI50 (SR leukemia)?
A: 16.5 µM

Q: What about the TGI (SR leukemia) of the same molecule?
A: > 100 µM

Q: What about the GI50 (HCT-116 colon) of the same molecule?
A: 7.2 µM

Q: What about the TGI (HCT-116 colon) of the same molecule?
A: > 100 µM

Q: And the GI50 (HCC-2998 colon)?
A: 11.9 µM

Q: What about the TGI (HCC-2998 colon) of the same molecule?
A: > 100 µM

Q: And the GI50 (UACC-257 melanoma)?
A: 37.6 µM

Q: What about the TGI (UACC-257 melanoma) of the same molecule?
A: > 100 µM

Q: Which results are given for `Cc1c(O)c(N=Nc2nc3ccccc3s2)c2ccccc2c1O`?
A: GI50 (RPMI-8226 leukemia): 23.6 µM; TGI (RPMI-8226 leukemia): > 50 µM; GI50 (NCI-H522 lung): 19.1 µM; TGI (NCI-H522 lung): 46.6 µM; GI50 (RXF 393 renal): 12.5 µM; TGI (RXF 393 renal): 39.7 µM; GI50 (SK-MEL-5 melanoma): 8.85 µM; TGI (SK-MEL-5 melanoma): 21.2 µM; GI50 (NCI/ADR-RES ovarian): 34.3 µM; TGI (NCI/ADR-RES ovarian): > 50 µM; GI50 (SR leukemia): > 50 µM; TGI (SR leukemia): > 50 µM; GI50 (HCT-116 colon): 22.6 µM; TGI (HCT-116 colon): > 50 µM; GI50 (HCC-2998 colon): > 50 µM; TGI (HCC-2998 colon): > 50 µM; GI50 (UACC-257 melanoma): 14.7 µM; TGI (UACC-257 melanoma): 36.1 µM

Q: How did the TGI (HT29 colon) turn out when `COc1cc(-c2nccc3cc(OC)c(OC)cc23)ccc1O` was run?
A: > 100 µM

Q: And the TGI (RPMI-8226 leukemia)?
A: > 100 µM

Q: And the TGI (NCI-H522 lung)?
A: > 100 µM

Q: What about the TGI (SK-MEL-5 melanoma) of the same molecule?
A: > 100 µM

Q: What about the TGI (SR leukemia) of the same molecule?
A: > 100 µM

Q: What about the TGI (HCT-116 colon) of the same molecule?
A: > 100 µM

Q: And the TGI (HCC-2998 colon)?
A: > 100 µM

Q: And the TGI (UACC-257 melanoma)?
A: > 100 µM

Q: `COc1ccc(/C(=N\NC(=O)NN)C(c2ccc(OC)cc2)C2(O)C(=O)Nc3c(Cl)cc(Cl)cc32)cc1` (stereo not drawn) was tested. Which TGI (HT29 colon) did it give?
A: > 100 µM

Q: What about the TGI (RPMI-8226 leukemia) of the same molecule?
A: > 100 µM

Q: What about the TGI (RXF 393 renal) of the same molecule?
A: > 100 µM

Q: And the TGI (SK-MEL-5 melanoma)?
A: > 100 µM

Q: What about the TGI (HCT-116 colon) of the same molecule?
A: > 100 µM

Q: What about the TGI (HCC-2998 colon) of the same molecule?
A: > 100 µM

Q: What about the TGI (UACC-257 melanoma) of the same molecule?
A: > 100 µM

Q: For `N#CC12CCC1C1CCCCC12N1CCSCC1` (stereo not drawn), which TGI (HT29 colon) is on record?
A: > 100 µM

Q: And the TGI (RPMI-8226 leukemia)?
A: > 100 µM

Q: What about the TGI (RXF 393 renal) of the same molecule?
A: 86.5 µM

Q: What about the TGI (SR leukemia) of the same molecule?
A: > 100 µM

Q: What about the TGI (HCT-116 colon) of the same molecule?
A: > 100 µM

Q: And the TGI (HCC-2998 colon)?
A: > 100 µM

Q: And the TGI (UACC-257 melanoma)?
A: > 10 µM

Q: What does the source list for `Cc1n[nH]c(=S)n(C)c1=S`?
A: TGI (RPMI-8226 leukemia): > 100 µM; TGI (NCI-H522 lung): > 100 µM; TGI (RXF 393 renal): > 100 µM; TGI (HCT-116 colon): > 100 µM

Q: Which results are given for `N#CC(C(=O)C(=O)Nc1ccccc1)c1ccccc1` (stereo not drawn)?
A: TGI (HT29 colon): > 100 µM; TGI (RPMI-8226 leukemia): > 100 µM; TGI (NCI-H522 lung): > 100 µM; TGI (SR leukemia): > 100 µM; TGI (HCT-116 colon): > 100 µM; TGI (UACC-257 melanoma): > 100 µM
